In article PMC8330735 (Journal of Enzyme Inhibition and Medicinal Chemistry, 2021):
Read-outs that look alike come from different tables or passages of the source.

Legend:
[1] = test system: ROS production in LPS-activated RAW 264.7 macrophages; experiment: ROS production in LPS-activated RAW 264.7 macrophages (DCFH-DA); format: cell-based; details: Mus musculus, RAW264.7; LPS 1 µg/mL activated RAW 264.7
Description: HCA7 colorectal cancer cell line was obtained from Sigma. […] Louis, MO) containing 10% heat-inactivated foetal bovine serum (HI-FBS) (Gibco, USA), 100 μg/mL streptomycin (Invitrogen, USA), and […] penicillin (Invitrogen, USA)[40]. HCA7 and RAW 264.7 cells were cultured in Dulbecco's minimal essential media (DMEM, Invitrogen) containing 10% HI-FBS, sodium pyruvate (1 mM), penicillin ([…]), and streptomycin (100 mg/m)[41]^,[42]. […] The cells were cultured, incubated with the different test compounds, and activated with LPS (1 µg/mL) as detailed above. […] IC50 values were calculated from the dose–response curves.

HCA7 cells = experiment: MTS cell viability assay HCA7; format: cell-based; details: Homo sapiens, HCA-7, 48 h, cell line highly expressing COX-2
Description: (§1) Human colorectal cancer cell lines, HCT116 and HT29, and RAW 264.7 macrophages were obtained from ATCC (Manassas, VA). HCA7 colorectal cancer cell line was obtained from Sigma. HT29 and HCT116 cells were cultured in McCoy's 5 A medium (Sigma Aldrich, St. Louis, MO) containing 10% heat-inactivated foetal bovine serum (HI-FBS) (Gibco, USA), 100 μg/mL streptomycin (Invitrogen, USA), and […] penicillin (Invitrogen, USA)[40]. HCA7 and RAW 264.7 cells were cultured in Dulbecco's minimal essential media (DMEM, Invitrogen) containing 10% HI-FBS, sodium pyruvate (1 mM), penicillin ([…]), and streptomycin (100 mg/m)[41]^,[42].
(§2) Cells were cultured in 96‐well plates for 48 h and then treated with serum-free media containing different concentrations of the tested compounds (12.5, 25, 50, 100 and 150 µM). After 48 h., MTS reagent (Promega) was added as directed by the manufacturer, and then, the absorbance was measured at 495 nm. The absorbance is proportional to the number of viable cells. IC50 was calculated from the dose-response curves as described previously[45] using GraphPad Prism 8 software (GraphPad Software, San Diego, CA).

[2] = test system: NO production in LPS-activated RAW 264.7 macrophages; experiment: NO production in LPS-activated RAW 264.7 macrophages (DAF-FM); format: cell-based; details: Mus musculus, RAW264.7; LPS 1 µg/mL activated RAW 264.7
Description: HCA7 colorectal cancer cell line was obtained from Sigma. […] Louis, MO) containing 10% heat-inactivated foetal bovine serum (HI-FBS) (Gibco, USA), 100 μg/mL streptomycin (Invitrogen, USA), and […] penicillin (Invitrogen, USA)[40]. HCA7 and RAW 264.7 cells were cultured in Dulbecco's minimal essential media (DMEM, Invitrogen) containing 10% HI-FBS, sodium pyruvate (1 mM), penicillin ([…]), and streptomycin (100 mg/m)[41]^,[42]. […] Molecular Probes, USA). Briefly, RAW 264.7 cells were cultured in black 96-well plates (200,000 cells/mL, 100 µl/well) for 24 h. […] The fluorescence intensity, which is directly proportional to NO levels, was quantified, as detailed in our previous study. IC50 values were calculated from the dose–response curves.

[3] = test system: stomach ulceration in rats; experiment: Gastric acute ulcerogenic activity; details: rat, n = 5; for Ulcer Index (UI): UI = UN + US + UP×10^−1
Description: (§3) The rats from the previous experiment were fasted for 12 h., followed by the administration of additional doses of the selected compounds or the two references for two consecutive days. Six hrs after the last treatment, the animals were sacrificed, and their stomachs were removed, washed with saline solution (0.9%) and examined for ulceration using a magnifying lens. The ulcer scores were estimated according to the method prescribed by Kulkarni and as detailed in our previous studies[36–38]. The following scores were individually assigned to each lesion: normal coloured stomach, 0; red colouration, 0.5; spot ulcers, 1; haemorrhagic streaks, 1.5; ulcer >3 but <5 mm, 2; and ulcers >5 mm, 3.

HCT116 cells = experiment: MTS cell viability assay HCT116; format: cell-based; details: Homo sapiens, HCT-116, 48 h, cell line scarcely expressing COX-2
Description: as §1, §2

ovine COX-1 = biological target: T1, ovine COX-1 (Ovis aries, UniProt P05979); experiment: In vitro COX-1 inhibitory assay (colorimetric Cayman kit)
T1 sequence (P05979 25-600): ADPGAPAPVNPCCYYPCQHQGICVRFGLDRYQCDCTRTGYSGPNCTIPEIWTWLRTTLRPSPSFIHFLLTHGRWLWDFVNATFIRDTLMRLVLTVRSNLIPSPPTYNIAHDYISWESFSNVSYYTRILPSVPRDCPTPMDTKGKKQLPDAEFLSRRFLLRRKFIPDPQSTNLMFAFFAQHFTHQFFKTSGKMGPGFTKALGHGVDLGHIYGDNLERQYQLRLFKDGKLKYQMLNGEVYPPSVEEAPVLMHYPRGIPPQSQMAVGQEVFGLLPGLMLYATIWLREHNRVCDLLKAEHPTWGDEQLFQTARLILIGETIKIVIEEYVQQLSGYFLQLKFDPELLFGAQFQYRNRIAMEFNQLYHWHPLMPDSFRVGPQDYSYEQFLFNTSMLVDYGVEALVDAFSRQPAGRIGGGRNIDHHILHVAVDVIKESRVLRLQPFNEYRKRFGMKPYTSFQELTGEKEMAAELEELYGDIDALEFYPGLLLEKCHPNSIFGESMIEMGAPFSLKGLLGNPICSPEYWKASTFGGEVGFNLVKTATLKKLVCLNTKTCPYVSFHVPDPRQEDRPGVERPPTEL
Description: (§4) All the newly synthesised compounds were tested for their ability to inhibit COX-1 and COX-2 enzymes using a screening assay method.

human recombinant COX-2 = biological target: T2, human recombinant COX-2 (Homo sapiens, UniProt P35354); experiment: In vitro COX-2 inhibitory assay (colorimetric Cayman kit); details: for Selectivity Index (SI): COX-1 IC50/COX-2 IC50
T2 sequence (P35354 18-604): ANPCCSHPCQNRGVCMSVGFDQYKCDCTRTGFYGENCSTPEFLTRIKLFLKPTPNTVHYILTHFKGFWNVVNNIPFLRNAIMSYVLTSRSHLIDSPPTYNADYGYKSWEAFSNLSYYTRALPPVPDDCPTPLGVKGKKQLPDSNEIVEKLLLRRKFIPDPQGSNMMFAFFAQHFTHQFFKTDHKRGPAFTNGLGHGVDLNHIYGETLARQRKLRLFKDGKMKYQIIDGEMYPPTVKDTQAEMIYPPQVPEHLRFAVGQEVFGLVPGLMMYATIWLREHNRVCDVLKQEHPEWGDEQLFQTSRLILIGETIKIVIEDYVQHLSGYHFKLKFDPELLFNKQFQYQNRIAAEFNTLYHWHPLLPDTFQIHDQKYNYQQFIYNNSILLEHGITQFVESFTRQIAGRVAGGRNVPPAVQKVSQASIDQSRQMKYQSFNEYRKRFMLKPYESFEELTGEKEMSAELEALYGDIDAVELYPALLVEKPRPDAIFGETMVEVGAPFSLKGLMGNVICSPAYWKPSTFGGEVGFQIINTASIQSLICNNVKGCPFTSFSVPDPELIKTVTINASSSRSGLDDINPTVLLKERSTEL
Description: as §4

HT29 cells = experiment: MTS cell viability assay HT29; format: cell-based; details: Homo sapiens, HT-29, 48 h, cell line moderately expressing COX-2
Description: as §1, §2

[4] = test system: carrageenan-induced rat paw oedema; experiment: Carrageenan-induced rat paw oedema test; format: in vivo; details: compounds and celecoxib 50 mg/kg, ibuprofen and indomethacin 20 mg/kg; for Mean oedema thickness 1h: 1 h after carrageenan; for Mean oedema thickness 1h / Mean oedema thickness 2h / Mean oedema thickness 3h / Mean oedema thickness 4h / Mean oedema thickness 5h / Mean oedema thickness 24h / Mean oedema thickness 0h: mean ± SEM, n = 5; for Mean oedema thickness 2h: 2 h after carrageenan; for Mean oedema thickness 3h: 3 h after carrageenan; for Mean oedema thickness 4h: 4 h after carrageenan; for Mean oedema thickness 5h: 5 h after carrageenan; for Mean oedema thickness 24h: 24 h after carrageenan; for Mean oedema thickness 0h: before carrageenan (0 h); for Average oedema inhibition%: from area under the curve of all time points
Description: The rats were divided into nine groups (n = 5/group). All tested compounds were suspended in 1% Tween-80. Group 1, controls, were given the vehicle (1% Tween80, 10 ml/kg). […] The rats were given the drugs 1 h before the injection of carrageenan solution (1% in 0.9% NaCl, 0.1 ml) (Sigma Aldrich, USA) in the sub-planter tissue of the right hind paw. The paw thickness (mm) was measured using a calliper before (0 h) and after carrageenan injection at 1, 2, 3, 4, 5 and 24 h. The inhibition of oedema thickness was calculated using the following formula (control– drug/control) × 100.

[5] = test system: acetic acid-induced writhing in mice; experiment: Acetic acid induced writhing test; format: in vivo; details: 50 mg/kg p.o., 1 h prior acetic acid i.p., within 30 min
Description: The number of writhes, manifested as extension of hind legs, constriction of abdomen, or turning of trunk was recorded within 30 min.

[6] = test system: stomach ulceration in rats; details: rat, in vivo, 2 days
Description: as §3

| Compound | IC50 [1] [µM] | IC50 (HCA7 cells) [µM] | IC50 [2] [µM] | Average Ulcer number [3] | Lesion Incidence (%) [3] [%] | Number of rats with ulcer [3] | IC50 (HCT116 cells) [µM] | IC50 (ovine COX-1) [µM] | IC50 (human recombinant COX-2) [µM] | Selectivity Index (SI) (human recombinant COX-2) | IC50 (HT29 cells) [µM] | Mean oedema thickness 1h [4] [mm] | Mean oedema thickness 2h [4] [mm] | Mean oedema thickness 3h [4] [mm] | Mean oedema thickness 4h [4] [mm] | Mean oedema thickness 5h [4] [mm] | Mean oedema thickness 24h [4] [mm] | Mean oedema thickness 0h [4] [mm] | Average oedema inhibition% [4] [%] | Ulcer Index (UI) [3] | also measured |
| --- | --- | --- | --- | --- | --- | --- | --- | --- | --- | --- | --- | --- | --- | --- | --- | --- | --- | --- | --- | --- | --- |
| CN1c2ccccc2C(=O)N(NC(=O)Cc2c[nH]c3ccccc23)C1c1ccc(Cl)cc1 (stereo not shown) [4a, N-(2-(4-chlorophenyl)-1-methyl-4-oxo-1,4-dihydroquinazolin-3(2H)-yl)-2-(1H-indol-3-yl)acetamide] | 29.7 ± 1.07 | 137.3 ± 0.08 | 31.5 ± 1.08 | 1.6 | 60 | 3 | 75.35 ± 0.1 | 12.68 ± 0.11 | 0.04 ± 0.08 | 317.00 | 15.42 ± 0.06 | 2.67 ± 0.24 | 2.90 ± 0.33 | 2.14 ± 0.25 | 2.04 ± 0.24 | 1.39 ± 0.06 | 0.54 ± 0.21 | 0.00 ± 0.00 | 33.40 | – | – |
| CN1c2ccccc2C(=O)N(NC(=O)Cc2c[nH]c3ccccc23)C1c1ccc([N+](=O)[O-])cc1 (stereo not shown) [4b, 2-(1 h-indol-3-yl)-N-(1-methyl-2-(4-nitrophenyl)-4-oxo-1,4dihydroquinazolin-3(2H)-yl)acetamide] | 24.5 ± 2.06 | > 150 | 32.2 ± 1.32 | 0.8 | 20 | 1 | > 150 | 6.93 ± 0.15 | 0.07 | 99.00 | 66.67 ± 0.07 | 1.39 ± 0.09 | 1.89 ± 0.25 | 1.70 ± 0.17 | 1.14 ± 0.22 | 1.42 ± 0.28 | 0.16 ± 0.08 | 0.00 ± 0.00 | 49.47 | 3 | melting point: 239 to 243 °C |
| O=C(CSc1nc2ccccc2c(=O)n1NC(=O)Cc1ccccc1)NNC(=O)c1ccccc1 [14c, N-(2-((2-(2-benzoylhydrazinyl)-2-oxoethyl)thio)-4-oxoquinazolin-3(4H)-yl)-2-phenylacetamide] | 16.2 ± 1.3 | > 150 | 13 ± 1.36 | 0.8 | 40 | 2 | > 150 | 15.4 ± 0.17 | 0.04 | 359.74 | > 150 | 3.02 ± 0.35 | 2.89 ± 0.13 | 2.42 ± 0.18 | 2.37 ± 0.19 | 2.34 ± 0.23 | 0.57 ± 0.09 | 0.00 ± 0.00 | 31.86 | 5.3 | melting point: 235 to 240 °C |
| Cc1ccc(-c2cc(C(F)(F)F)nn2-c2ccc(S(N)(=O)=O)cc2)cc1 [Celecoxib, reference compound] | – | 51.36 ± 0.04 | – | – | – | – | 53.77 ± 0.05 | – | – | – | 5.82 ± 0.38 | 1.27 ± 0.07 | 1.51 ± 0.07 | 1.49 ± 0.14 | 1.39 ± 0.12 | 1.19 ± 0.08 | 0.53 ± 0.12 | 0.00 ± 0.00 | 47.60 | – | Number of writhes [5]: 29.20 writhes; Average Ulcer number [6]: 0.2; Lesion Incidence (%) [6]: 20%; Number of rats with ulcer [6]: 1 |
